In article PMC9290008 (ACS Medicinal Chemistry Letters, 2022):

Test: GSH incorporation experiments
Format: in vitro ADME, human
Settings: 10 μM compound, GSH 5 mM, 37 °C, 30 min; for %GSH − HLM: absence of HLM; for % GSH + HLM: presence of HLM

| Compound | %GSH − HLM [%] | % GSH + HLM [%] |
| --- | --- | --- |
| Clc1nccc(-n2ccc3ncccc32)n1 [Compound 8] | 0.1 | 53.5 |
| Clc1ncc(Cl)c(-n2ccc3ncccc32)n1 [Compound 1] | – | 96.0 |

Results, then the compound that gave them:

| %GSH − HLM [%] | % GSH + HLM [%] | Compound |
| --- | --- | --- |
| 2.8 | 49.9 | N#Cc1ccc(Cl)nc1-n1ccc2ncncc21 [Compound 23] |
| 2.5 | 99.9 | Clc1ncc(Cl)c(-n2ccc3ncncc32)n1 [Compound 20] |
| 0 | 16.1 | Clc1ncc(Cl)c(-c2c[nH]c3ncncc23)n1 [Compound 21] |
